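These data come from cells grown in 96-well plates and exposed to compound for 48 hours at five concentrations. GI50: concentration for 50% inhibition of growth.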 Activity calls are given as the source filed them. Cut-off read from the data, not from the text of the source: active = GI50 up to about 1.1 µM and inactive = higher.
Assays:
Test in all cases: NCI anticancer screen, dose series, 48 h
[1] = system: SK-MEL-5
[2] = system: T47D
[3] = system: A549
[4] = system: CCRF-CEM
[5] = system: HOP-62
[6] = system: PC-3
[7] = system: LOX IMVI
[8] = system: MOLT-4
[9] = system: SK-OV-3
[10] = system: UACC-257
[11] = system: NCI/ADR-RES
[12] = system: SNB-19
[13] = system: NCI-H226
[14] = system: ACHN
[15] = system: UACC-62
[16] = system: NCI-H23
[17] = system: OVCAR-8
[18] = system: SW-620
[19] = system: 786-0
[20] = system: A498

Measured: GI50

Clc1ccc(Cc2nc3ccccc3o2)cc1
inactive: [1] 31.3 µM | [2] 27.2 µM | [3] 75 µM | [4] 40.1 µM | [5] > 100 µM | [6] 55.8 µM | [7] > 100 µM | [8] 38.5 µM | [9] > 100 µM | [10] 52.1 µM | [11] 42 µM | [12] > 100 µM | [13] 40.4 µM | [14] > 100 µM | [15] > 100 µM | [16] 56 µM | [17] > 100 µM | [18] > 100 µM | [19] 96.4 µM

COc1ccc(C2SC(=N)Nc3c2c(C)nn3C(=O)Cc2ccccc2)cc1 (configuration not stated)
inactive: [1] > 100 µM | [20] > 100 µM | [2] > 100 µM | [3] > 100 µM | [4] > 100 µM | [5] > 100 µM | [6] > 100 µM | [7] > 100 µM | [8] > 100 µM | [9] > 100 µM | [10] > 100 µM | [12] > 100 µM | [13] > 100 µM | [14] > 100 µM | [15] > 100 µM | [16] > 100 µM | [17] > 100 µM | [18] > 100 µM | [19] > 100 µM

CCOC(=O)CCC(NC(=O)OCc1ccccc1)C(=O)NC(CCC(=O)OCC)C(=O)NC(CCC(=O)OCC)C(=O)NC(CCC(=O)OCC)C(=O)NC(CCC(=O)OCC)C(=O)OCC (configuration not stated)
inactive: [1] > 100 µM | [2] > 100 µM | [3] > 100 µM | [4] > 100 µM | [5] > 100 µM | [6] > 100 µM | [7] > 100 µM | [8] > 100 µM | [9] > 100 µM | [10] > 100 µM | [11] > 100 µM | [14] > 100 µM | [15] > 100 µM | [16] > 100 µM | [17] > 100 µM | [18] > 100 µM | [19] > 100 µM

C=CCN(c1cc(OCc2ccccc2)c2c(c1)c(C)cn2S(=O)(=O)c1ccccc1)S(C)(=O)=O
inactive: [1] > 100 µM | [2] > 100 µM | [3] > 100 µM | [4] > 100 µM | [5] > 100 µM | [6] > 100 µM | [7] > 100 µM | [8] > 100 µM | [9] > 100 µM | [10] > 100 µM | [11] > 100 µM | [12] > 100 µM | [13] > 100 µM | [14] > 100 µM | [15] > 100 µM | [16] > 100 µM | [17] > 100 µM | [18] > 100 µM | [19] > 100 µM

Cc1ccc(OCCn2cc(Nc3ccccc3)c(=O)n(CCOc3ccc(C)cc3)c2=O)cc1
inactive: [1] > 100 µM | [20] > 100 µM | [2] > 100 µM | [3] 28.8 µM | [4] > 100 µM | [6] 93.5 µM | [7] > 100 µM | [8] 67.1 µM | [10] > 100 µM | [11] > 100 µM | [12] 48.9 µM | [13] > 100 µM | [14] > 100 µM | [15] > 100 µM | [16] > 100 µM | [17] 40.6 µM | [18] > 100 µM | [19] 48 µM

O=C(NC(CCCCN1C(=O)c2ccccc2C1=O)P(=O)(Oc1ccccc1)Oc1ccccc1)OCc1ccccc1 (configuration not stated)
inactive: [1] > 100 µM | [2] > 100 µM | [3] > 100 µM | [5] 71.8 µM | [6] > 100 µM | [9] > 100 µM | [10] > 100 µM | [11] > 100 µM | [12] > 100 µM | [13] > 100 µM | [14] > 100 µM | [15] > 100 µM | [16] 7.33 µM | [17] > 100 µM | [18] > 100 µM | [19] > 100 µM

C=C(C)[C@H]1C=C[C@@H](OC(C)=O)[C@@]2(COC(C)=O)[C@H](OC(=O)CCC)[C@H]3[C@@H](OC(C)=O)[C@@H](C)C[C@]3(O)C(=O)[C@@](C)(OC(C)=O)[C@H]12
inactive: [1] 34.7 µM | [20] 67 µM | [2] 27 µM | [3] 32.7 µM | [4] 42.4 µM | [6] 31.6 µM | [7] 29.5 µM | [8] 33.6 µM | [10] 39.4 µM | [11] 42.5 µM | [12] 66.2 µM | [13] 40.1 µM | [14] 34.2 µM | [15] 66.5 µM | [16] 39.3 µM | [17] 29.7 µM | [18] 55 µM | [19] 39.7 µM

O=[N+]([O-])c1cccnc1NCC1(CO)CCCC1
inactive: [1] 17.1 µM | [20] 39.6 µM | [3] 35.2 µM | [4] 29.4 µM | [5] 33 µM | [6] 19.1 µM | [7] 16.7 µM | [8] 15.6 µM | [10] 20.6 µM | [11] 20 µM | [12] 56.4 µM | [13] 25.6 µM | [14] 27 µM | [16] 32.6 µM | [17] 19.4 µM | [18] 25.7 µM | [19] 26.7 µM

CC(C)(C)Nc1noc(=O)n1C(C)(C)C
inactive: [1] > 100 µM | [20] > 100 µM | [3] > 100 µM | [4] > 100 µM | [5] > 100 µM | [6] > 100 µM | [7] > 100 µM | [8] > 100 µM | [9] > 100 µM | [10] > 100 µM | [11] > 100 µM | [12] > 100 µM | [13] > 100 µM | [14] > 100 µM | [15] > 100 µM | [16] > 100 µM | [17] > 100 µM | [18] > 100 µM | [19] > 100 µM

CC1=N[C@](C)(C2CC3C=CC2C3=O)COC1=O (some centres not stated)
inactive: [1] > 100 µM | [20] > 100 µM | [2] > 100 µM | [3] > 100 µM | [4] > 100 µM | [5] > 100 µM | [6] > 100 µM | [8] > 100 µM | [9] > 100 µM | [10] > 100 µM | [12] > 100 µM | [13] > 100 µM | [14] > 100 µM | [15] > 100 µM | [16] > 100 µM | [17] > 100 µM | [18] > 100 µM | [19] > 100 µM

COc1cc(CNc2nc3cc(C(F)(F)F)ccc3nc2C)cc(OC)c1OC
inactive: [1] 19.7 µM | [2] 17.9 µM | [3] 28.4 µM | [4] 20.3 µM | [5] 24.3 µM | [7] 13.9 µM | [8] 10.9 µM | [10] 16.6 µM | [11] > 10 µM | [12] 35.1 µM | [13] > 10 µM | [14] 13.6 µM | [15] 7.96 µM | [16] 18.9 µM | [17] 23.7 µM | [18] 17.1 µM | [19] > 10 µM
